In BindingDB's records for doi:10.1111/cbdd.12095 (Universite Lille-Nord de France, 2013):

Biological target: Cannabinoid receptor 2 (Homo sapiens, UniProt P34972)
Assay: Competition Binding Assay
Description: Competitive binding assay using cannabinoid receptors.

Chain of Cannabinoid receptor 2 (P34972 whole entry): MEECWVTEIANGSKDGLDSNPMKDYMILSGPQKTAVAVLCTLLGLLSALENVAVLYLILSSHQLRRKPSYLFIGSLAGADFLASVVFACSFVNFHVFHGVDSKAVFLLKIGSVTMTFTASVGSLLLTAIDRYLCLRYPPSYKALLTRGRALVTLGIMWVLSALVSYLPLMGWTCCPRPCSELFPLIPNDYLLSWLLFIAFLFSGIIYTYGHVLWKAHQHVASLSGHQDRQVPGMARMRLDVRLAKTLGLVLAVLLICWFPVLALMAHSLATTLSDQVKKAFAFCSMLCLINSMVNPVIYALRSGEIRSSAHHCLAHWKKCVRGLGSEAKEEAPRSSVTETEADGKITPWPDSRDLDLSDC

Structure (SMILES) | Ki [µM]
C#CN1CCC2=C(C1)c1c(O)cc(C(C)C(C)CCCCC)cc1OC2(C)C (stereo not drawn) [CB2 Inhibitor, 1] | 0.0023
Cc1cc(C)c(CNC(=O)c2cc3c(C)nn(Cc4ccc(F)cc4)c3s2)c(=O)[nH]1 [CB2 Inhibitor, 2] | 0.143
CC1N(C)c2ccc(P(=O)(c3ccccc3)c3ccccc3)cc2C1(C)C (stereo not drawn) [CB2 Inhibitor, 3] | 0.54
Cc1cc(C(=O)COc2ccccc2C(N)=O)c(C)n1CCC1=CCCCC1 [CB2 Inhibitor, 4] | 0.96
COc1ccc(CN2CCCn3c4c(c5cc(C)ccc53)CCCC42)cc1O (stereo not drawn) [CB2 Inhibitor, 5] | 2.36
CC1CCCN(Cc2cc(-c3ccc4c(c3)OCO4)ccc2OCC(=O)NCc2ccccc2F)C1 (stereo not drawn) [CB2 Inhibitor, 6] | 4.44
c1ccc2c(c1)CCCC2Nc1nc(CN2CCCCC2)nc2sc3c(c12)CCCC3 (stereo not drawn) [CB2 Inhibitor, 7] | 4.78
O=C(CCC(=O)N1CCC(n2c(=O)[nH]c3ccccc32)CC1)c1ccc2c(c1)CCCC2 [CB2 Inhibitor, 8] | 8.83
CCC(CC)S(=O)(=O)c1cccc(-c2nnc(SCCN(C)C)n2C2CCCCCC2)c1 [CB2 Inhibitor, 9] | 9.27
CCCC(=NNC(=O)C1CC1(c1cccc(C)c1)c1cccc(C)c1)c1ccc(OC)cc1 (stereo not drawn) [CB2 Inhibitor, 10] | 14.7
CC1=CC(C(=O)CN2C(=O)NC(C)(c3ccc(F)cc3)C2=O)=C(C)C1CCc1cccs1 (stereo not drawn) [CB2 Inhibitor, 11] | 36.9
CCCn1c(SCC(=O)NCC2COc3ccccc3O2)nc2sc3c(c2c1=O)CCC3 (stereo not drawn) [CB2 Inhibitor, 12] | 60.9
CN(C)C(CNC(=O)C1(Cc2ccccc2)CCCCC1)c1cccs1 (stereo not drawn) [CB2 Inhibitor, 13] | 71.4
